Data: patent publication US20200038423A1, “USE OF 6-O-(C8-C20 ALKYL ESTER) OF 1-O-(C1-C6 ALKYL)-ß-D-GLUCOSIDE AS AN AGENT FOR PROTECTING THE SKIN” (PIERRE FABRE DERMO-COSMETIQUE, priority 2016, published 2020)

Columns and labels:
Format in all cases: cell-based
SULT2B1 = assay: RT-qPCR, modulation of genes involved in keratinocyte differentiation and hydration: SULT2B1; conditions: CaCl2 1.5 mM; normal human keratinocytes, 48 h; lipid differentiation marker
Procedure: (§1) Normal human keratinocytes were incubated for 48 h with 1-O-n-butyl-β-D-glucoside 6-O-lauroyl. Its effects were evaluated using the RT-qPCR technique with the analysis of 6 target genes, chosen for their importance in keratinocyte differentiation and hydration.

FABP5 = assay: RT-qPCR, modulation of genes involved in keratinocyte differentiation and hydration: FABP5; conditions: CaCl2 1.5 mM; normal human keratinocytes, 48 h; lipid differentiation marker
Procedure: as §1

DEGS2 = assay: RT-qPCR, modulation of genes involved in keratinocyte differentiation and hydration: DEGS2; conditions: CaCl2 1.5 mM; normal human keratinocytes, 48 h; lipid differentiation marker
Procedure: as §1

KLK7 = assay: RT-qPCR, modulation of genes involved in keratinocyte differentiation and hydration: KLK7; conditions: CaCl2 1.5 mM; normal human keratinocytes, 48 h; protein differentiation marker
Procedure: as §1

TGM1 = assay: RT-qPCR, modulation of genes involved in keratinocyte differentiation and hydration: TGM1; conditions: CaCl2 1.5 mM; normal human keratinocytes, 48 h; protein differentiation marker
Procedure: as §1

CASP14 = assay: RT-qPCR, modulation of genes involved in keratinocyte differentiation and hydration: CASP14; conditions: CaCl2 1.5 mM; normal human keratinocytes, 48 h; protein differentiation marker
Procedure: as §1

[1] = system: Normal human keratinocytes; assay: Keratinocyte differentiation judged from RT-qPCR of 6 target genes; conditions: 20 μM, incubation for 48 h
Procedure: as §1

[2] = system: primary normal human keratinocytes; assay: Oris Cell Migration Assay, keratinocyte migration; conditions: for % Stim (% stimulation of keratinocyte migration): 24 h migration
Procedure: Oris™ Cell Migration Assays were used to estimate cell migration.
Primary normal human keratinocytes isolated from tissues extracted during cosmetic surgery were seeded on 96-well plates and cultured in KSFM supplemented with 25 μg/ml bovine pituitary extract (BPE, Invitrogen) and 0.2 ng/ml EGF (Invitrogen). After 24 h of incubation, the culture medium is replaced with KSM without supplement. After 24 h of incubation, the Oris™ stoppers as well as the test compounds or positive controls are removed. The latter are 5 ng/ml TGF-β, 30 ng/ml EGF, or KSM supplemented with BPE and EGF. Incubation continues for the next 24 h to allow migration. At the end of incubation, Calcein AM dye, which penetrates the cells, is added to the wells and is converted to fluorescence which is then quantified in a detection zone using a monochromatic microplate (Clariostar, BMG Labteck).
The compound tested is 1-O-n-butyl-β-D-glucoside 6-O-lauroyl, it is solubilized in DMSO at a concentration of 100 mM. The compound is tested at 2, 10 and 20 μM. The effect of DMSO at the tested concentrations has no effect on keratinocyte migration. The experiments are repeated on 2 donors with 8 wells for each condition.
The quantification of the fluorescence emitted in the detection zone is proportional to keratinocyte migration. Statistical analyses (Mann-Whitney test) are used to analyze the effect of the compound. After fluorescence quantification, the cells were rapidly fixed in 4% paraformaldehyde before eosin-hematoxylin staining and observed under a microscope.

[Ca+2].[Cl-].[Cl-] [CaCl2]
SULT2B1 expression, Mean (% Control) (SULT2B1): 1169 % Control
FABP5 expression, Mean (% Control) (FABP5): 501 % Control
DEG S2 expression, Mean (% Control) (DEGS2): 217 % Control
KLK7 expression, Mean (% Control) (KLK7): 994 % Control
TGM1 expression, Mean (% Control) (TGM1): 910 % Control
CASP14 expression, Mean (% Control) (CASP14): 127 % Control

CCCCCCCCCCCC(=O)OC[C@H]1O[C@@H](OCCCC)[C@H](O)[C@@H](O)[C@@H]1O [β-LBG, 1-O-n-butyl-β-D-glucoside 6-O-lauroyl]
keratinocyte differentiation [1]: induces reproducible keratinocyte differentiation
keratinocyte migration ([2]; both donors tested, at either 10 μM or 20 μM): stimulates keratinocyte migration
migration of normal human keratinocytes ([2]; concentrations of 10 to 20 μM): significantly stimulates
% Stim (% stimulation of keratinocyte migration) ([2]; donor 1, 2 μM): −30%
% Stim (% stimulation of keratinocyte migration) ([2]; donor 1, 10 μM): 41%
% Stim (% stimulation of keratinocyte migration) ([2]; donor 1, 20 μM): 104%
% Stim (% stimulation of keratinocyte migration) ([2]; donor 2, 2 μM): 46%
% Stim (% stimulation of keratinocyte migration) ([2]; donor 2, 10 μM): 63%
% Stim (% stimulation of keratinocyte migration) ([2]; donor 2, 20 μM): 21%

EGF: positive control of migration, 30 ng/ml EGF [reference compound]
% Stim (% stimulation of keratinocyte migration) ([2]; donor 1, 30 ng/ml): 35%
% Stim (% stimulation of keratinocyte migration) ([2]; donor 2, 30 ng/ml): 87%
